According to patent publication US20230414506A1, “PEPTIDE FORMULATIONS AND METHODS OF USE” (REALTA LIFE SCIENCES, INC., priority 2020, published 2023):
Ends that are not written are not given here. dPEG24 = C-terminal PEG24

Experiments:
[1] = system: complement activity (human O sera and AB red blood cells); experiment: ABO incompatibility CH50-type hemolytic assay of peptides formulated with different excipients; assay type: biochemical; settings: for Inhibition of complement activation in the hemolytic assay: formulated in citrate, ascorbate and methionine, compared to histidine formulation
Protocol: To ascertain if these various excipients had any effect on the functional activity of PA-dPEG24 and PA-I8Sar, the formulated peptides were tested in a hemolytic assay to determine the ability of these molecules to inhibit complement activity. For hemolytic complement assays, human red blood cells (RBCs) from type AB donors were purified, washed and standardized to 1×10^9 cells/ml, as previously described. Human sera from type O donors at a 20% final concentration was combined with increasing concentrations of the formulated peptides and the volume was brought up to 0.15 ml with GVBS++ buffer and […] RBCs. The samples were spun at 3,000 rpm for 5 minutes and the supernatant was collected and read at 412 nm. Values are represented as a percent of the positive control, which consists of human O sera and AB red blood cells in GVBS++ buffer without peptide addition.

[2] = Gelling of citrate buffer formulation; assay type: physicochemical; settings: 80 mg/ml, pH 6.8
Protocol: For the citrate buffer conditions, PA-dPEG24 and PA-I8Sar were formulated at a concentration of 80 mg/ml at pH 6.8. […] This gelling behavior was not observed for PA-I8Sar.

[3] = Aqueous solubility of the peptides; assay type: physicochemical
[4] = assay type: physicochemical; settings: 20% Intralipid, 4° C. for 48 hours
[5] = cited from earlier work

Row | Substance | Inhibition of complement activation in the hemolytic assay [1] | Gelling behavior [2] | Solubility studies, character of the peptide [3] | Appearance of Intralipid mixture on standing [4] | Aqueous solubility [5] | Complement inhibiting activity compared between excipients ([1]; ascorbate, citrate, histidine, methionine formulations)
1 | IALILEP(Sar)CCQERAA [PA-I8Sar] | able to maintain dose-dependent inhibition of complement activation | not observed | amphipathic | – | – | –
2 | IALILEPICCQERAA [PA] | – | – | – | became paste-like | – | –
3 | IALILEPICCQERAA-dPEG24 (cysteine pairing not given here) [PA-dPEG24, PIC1 peptide with a C-terminal monodisperse 24-mer PEGylated moiety] | able to maintain dose-dependent inhibition of complement activation | would start to gel if not kept on ice | – | – | highly soluble | slightly increased complement inhibiting activity compared to peptide formulated in methionine
